In PMC6301270 (MedChemComm, 2018):
Entries after “also recorded” stand apart in the source; their conditions may differ. Like-named read-outs stand apart in the source and are kept apart here.

Experiments:
[1] = system: T.b. brucei (strain 427) bloodstream form parasites; assay: T.b. brucei single concentration screen (10 μM); conditions: Trypanosoma brucei, read-out: T.b.brucei % viability (10 µM)
T. brucei culture = system: T. brucei culture; set-up: method as in PMID 22148754, PMID 20360736; conditions: through selective inhibition of T. brucei N-myristoyl transferase; cited from earlier work
HeLa cells = assay: HeLa cell assay (cytotoxicity); format: cell-based; conditions: Homo sapiens
[2] = system: T.b. brucei (strain 427) bloodstream form parasites; assay: Trypanosoma brucei assay, dose–response (this study); format: cell-based; conditions: for IC50: Trypanosoma brucei; for Selectivity index: calculated as IC50(HeLa)/IC50(T.bb)
T.b. brucei = system: T.b. brucei; set-up: method as in https://www.pathogenbox.org/; conditions: Table 1, kinetoplastid category; ref https://www.pathogenbox.org/; read-out: T. brucei brucei IC50 (μM) Pathogen Box; cited from earlier work
HepG2 cells = system: HepG2 cells; set-up: method as in Pathogen Box; conditions: ref Pathogen Box, read-out: CC50 against HepG2 cells; cited from earlier work
mycobacterial = system: mycobacterial; set-up: method as in PMID 23268609; conditions: inhibits the ATPase domain of DNA gyrase B; cited from earlier work
plasmodial = system: plasmodial; set-up: method as in PMID 22390538; conditions: screen of the SoftFocus kinase library; cited from earlier work
Leishmaniasis donovani = system: Leishmaniasis donovani; set-up: method as in Duffy et al.; conditions: ref Duffy et al.; cited from earlier work
kinetoplastid = system: kinetoplastid; set-up: method as in PMID 25740547; conditions: screen of 1.8 million compounds; cited from earlier work
[3] = Table 2, HeLa cells, 48 hours, resazurin, read-out: HeLa IC50
[4] = Table 2, remaining Pathogen Box, 48 hours at 37 °C, resazurin, read-out: T. brucei brucei IC50 (μM) This study
[5] = pIC50 values (M), read-out: pIC50 (T.b. brucei), this study (converted)

Compound	viability at 10 µM [1] [%]	Inhibition of T. brucei culture (T. brucei culture)	IC50 (HeLa cells; HeLa, 48 h, read-out: HeLa IC50 (μM)) [µM]	IC50 ([2]; 48 h, read-out: T. brucei brucei IC50 (μM) This study) [µM]	IC50 (T.b. brucei) [µM]	IC50 (HeLa cells; [3]) [µM]	T.b. brucei inhibition in words, this study [2]	IC50 [2, 4] [µM]	IC50 [2, 5] [µM]	Selectivity index [2]	CC50 (HepG2 cells) [nM]	In vitro anti-mycobacterial activity (mycobacterial)	Anti-plasmodial activity (plasmodial)	Inhibition of Leishmaniasis donovani (Leishmaniasis donovani)	Kinetoplastid inhibition (kinetoplastid)
Cc1nn(C)c(C)c1NS(=O)(=O)c1c(Cl)cc(-c2ccnc(N3CCNCC3)c2)cc1Cl [Compound 1, Cc1nn(C)c(C)c1NS(=O)(=O)c2c(Cl)cc(cc2Cl)c3ccnc(c3)N4CCNCC4]	2	moderate inhibitor	2.8	11	< 0.13	–	–	–	–	–	–	–	–	–	–
CCc1c(C)nc(-n2nc(C)cc2NC(=O)c2ccccc2SC)[nH]c1=O [Compound 39, CCC1=C(C)N=C(NC1=O)n2nc(C)cc2NC(=O)c3ccccc3SC]	2	–	–	–	–	2.6	sub-micromolar inhibitors; also recorded: sub-micromolar range	0.59	< 1	4.4	1300	–	–	–	–
CN1CCN(CCCOc2ncc(Nc3ncc(-c4ccc(C(F)(F)F)c(F)c4)nc3C(N)=O)cn2)CC1 [Compound 46, CN1CCN(CCCOc2ncc(Nc3ncc(nc3C(=O)N)c4ccc(c(F)c4)C(F)(F)F)cn2)CC1]	3	–	–	–	–	4.8	sub-micromolar inhibitors; also recorded: sub-micromolar range	0.87	< 1	5.5	3900	potent	–	–	–
COc1cc(-c2cc(-c3ccc(S(C)(=O)=O)cc3)cnc2N)ccc1O [Compound 53, COc1cc(ccc1O)c2cc(cnc2N)c3ccc(cc3)S(=O)(=O)C]	1	–	–	–	–	> 25	sub-micromolar inhibitors; also recorded: sub-micromolar range; also recorded: activity in the nanomolar range	0.33	< 1	–	–	–	potent and selective	moderate inhibitor	–
TCMDC 142497 [Compound 70]	–	–	–	–	–	–	–	–	–	–	–	–	–	–	potent kinetoplastid inhibitor
